This is an account of results in ChEMBL document CHEMBL1201862, “PubChem BioAssay data set” (2004).

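Five concentrations, 48 hours, 96-well plates. GI50 marks 50% less growth.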 Active and inactive are the calls of the source. Cut-off read from the data, not from the text of the source: active = GI50 up to about 1.1 µM and inactive = higher. Where only a bound is given, the exact number is not on record here.

Some test systems named below: HCT-15; NCI-H226; PC-3; KM12; OVCAR-4; IGROV-1; SNB-19; T47D; HCT-116; A498; NCI-H522; 786-0; UACC-257; NCI-H23; Malme-3M; M14; DU-145; OVCAR-5; SK-MEL-5; RPMI-8226.
Common to all, as to experiment: DTP human tumour cell line panel, 48 h

One may read the GI50 as the concentration giving 50% growth inhibition. On to `CC(=O)Nc1nc(NC(C)=O)c2nc(CO)[nH]c2n1`, for which the GI50 is over 100 µM in the assay on HCT-15; > 100 µM (inactive) in the assay with NCI-H226; > 100 µM (inactive) in the assay on PC-3; > 100 µM (inactive) in the assay on KM12; > 100 µM (inactive) with OVCAR-4; > 100 µM (inactive) in the assay with IGROV-1. For the same compound, the GI50 in the assay with SNB-19, with T47D, with HCT-116, in the assay with A498, with NCI-H522 and in the assay with 786-0 was > 100 µM (inactive) each time. Also, the GI50 in the assay with UACC-257, with NCI-H23, in the assay on Malme-3M, with M14, in the assay on DU-145 and in the assay on OVCAR-5 was > 100 µM (inactive) in each case. Further, the GI50 in the assay with SK-MEL-5 is > 100 µM (inactive).

As for `CC12CCCC3(CC(=O)C(C)(C)C3C(=O)C1)C2` (stereo not given), the 50% growth inhibitory concentration (GI50) with HCT-15 was over 100 µM; in the assay on NCI-H226, > 100 µM (inactive); with PC-3, > 100 µM (inactive); in the assay on KM12 it was > 100 µM (inactive); in the assay with OVCAR-4, > 100 µM (inactive); with IGROV-1, > 100 µM (inactive). Also, the GI50 in the assay on SNB-19, in the assay with T47D, in the assay with HCT-116, in the assay with RPMI-8226, in the assay on NCI-H522 and in the assay with 786-0 was > 100 µM (inactive) each time. Further, the GI50 in the assay on UACC-257, with NCI-H23, in the assay with Malme-3M, in the assay with M14, in the assay with DU-145 and in the assay with OVCAR-5 was > 100 µM (inactive) each time. In addition, the GI50 in the assay with SK-MEL-5 is > 100 µM (inactive).

For the compound `Cc1nn(C(=O)c2ccncc2)c2c1C(c1ccccc1)SC(=N)N2` (stereo not given), the concentration for 50% growth inhibition (GI50) is over 10 µM in the assay on HCT-15; > 10 µM (inactive) in the assay with NCI-H226; > 10 µM (inactive) with PC-3; > 10 µM (inactive) with KM12; > 10 µM (inactive) in the assay with OVCAR-4; > 10 µM (inactive) with IGROV-1. For the same compound, the GI50 in the assay on SNB-19, in the assay on T47D, in the assay on HCT-116, in the assay on RPMI-8226, in the assay on NCI-H522 and in the assay with 786-0 was > 10 µM (inactive) in each case. For the same compound, the GI50 in the assay on UACC-257, in the assay on NCI-H23, in the assay with Malme-3M, in the assay on M14, in the assay on DU-145 and in the assay on OVCAR-5 was > 10 µM (inactive) throughout. Moreover, the GI50 with SK-MEL-5 is > 10 µM (inactive).

Turning to `COc1ccc2c(c1OC)C(=O)N/C2=C\c1c(CCN(C)C)cc2c(c1OC)OCO2`, the 50% growth inhibitory concentration (GI50) in the assay on HCT-15 is over 100 µM; in the assay on NCI-H226, > 100 µM (inactive); with PC-3 it was > 100 µM (inactive); in the assay on KM12 it was > 100 µM (inactive); with OVCAR-4, > 100 µM (inactive); in the assay on IGROV-1 it was 38.6 µM (inactive). Also, the GI50 with SNB-19 is > 100 µM (inactive); in the assay on T47D it was 27.9 µM (inactive); in the assay on HCT-116, 83.2 µM (inactive); with RPMI-8226, > 100 µM (inactive); in the assay on NCI-H522, 37.6 µM (inactive); in the assay with 786-0, > 100 µM (inactive). The GI50 with UACC-257 was 51.2 µM (inactive); with NCI-H23 it was > 100 µM (inactive); in the assay with Malme-3M it was 62.8 µM (inactive); in the assay with M14, > 100 µM (inactive); in the assay on DU-145 it was > 100 µM (inactive); in the assay with OVCAR-5, > 100 µM (inactive). For the same compound, the GI50 in the assay with SK-MEL-5 is 42.4 µM (inactive).

`N#C/C(=C1\N=C(c2ccccc2O)Oc2ccccc21)c1ccc([N+](=O)[O-])cc1`: the GI50 is over 100 µM in the assay on HCT-15; > 100 µM (inactive) with NCI-H226; > 100 µM (inactive) in the assay on PC-3; > 100 µM (inactive) with KM12; 41.9 µM (inactive) in the assay with OVCAR-4; 88.9 µM (inactive) with IGROV-1. Moreover, the GI50 with SNB-19 is > 100 µM (inactive); with T47D, > 100 µM (inactive); in the assay on HCT-116, > 100 µM (inactive); with A498, > 100 µM (inactive); in the assay with RPMI-8226 it was > 100 µM (inactive); with 786-0, 93.8 µM (inactive). In addition, the GI50 in the assay with UACC-257, in the assay on NCI-H23, with Malme-3M, with M14, in the assay on DU-145 and in the assay on OVCAR-5 was > 100 µM (inactive) each time. Moreover, the GI50 with SK-MEL-5 is > 100 µM (inactive).

On to `CNN1C(=O)c2c(C)c(C)c(C#N)c(N)c2C1=O`, for which the GI50 in the assay with HCT-15 was over 100 µM; in the assay with NCI-H226 it was > 100 µM (inactive); in the assay with PC-3, > 100 µM (inactive); in the assay on KM12, > 100 µM (inactive); in the assay on OVCAR-4, > 100 µM (inactive); with IGROV-1, > 100 µM (inactive). In addition, the GI50 in the assay on SNB-19, in the assay on T47D, with HCT-116, in the assay on RPMI-8226, in the assay with NCI-H522 and in the assay with 786-0 was > 100 µM (inactive) each time. Besides, the GI50 with UACC-257, in the assay on Malme-3M, with M14, in the assay with DU-145, with OVCAR-5 and in the assay on SK-MEL-5 was > 100 µM (inactive) throughout.

For the compound `CCC(=O)N1C(=O)C(CC)(CC)C(=O)N1C(=O)CC`, the GI50 is over 100 µM in the assay with HCT-15; > 100 µM (inactive) in the assay with NCI-H226; > 100 µM (inactive) with PC-3; > 100 µM (inactive) with KM12; > 100 µM (inactive) with OVCAR-4; > 100 µM (inactive) with IGROV-1. Besides, the GI50 in the assay with SNB-19, in the assay on T47D, in the assay with HCT-116, with RPMI-8226, in the assay with NCI-H522 and in the assay on 786-0 was > 100 µM (inactive) each time. In addition, the GI50 in the assay on UACC-257, with NCI-H23, in the assay with Malme-3M, in the assay with M14, in the assay on DU-145 and in the assay with OVCAR-5 was > 100 µM (inactive) throughout. Moreover, in the assay with SK-MEL-5, the GI50 was > 100 µM (inactive).

Turning to `COCCn1cnc2c(Cl)nc(Nc3ccccc3)nc21`, the 50% growth inhibitory concentration (GI50) with HCT-15 was 22.9 µM; with NCI-H226, > 100 µM (inactive); in the assay on PC-3 it was 22.3 µM (inactive); in the assay with KM12, > 100 µM (inactive); in the assay with OVCAR-4, 22 µM (inactive); in the assay with IGROV-1, 21.2 µM (inactive). Also, the GI50 in the assay on SNB-19 is 90.4 µM (inactive); with T47D it was 29.8 µM (inactive); with HCT-116 it was 27.7 µM (inactive); in the assay with A498, 59.4 µM (inactive); in the assay with RPMI-8226, 86.9 µM (inactive); with 786-0 it was 69.2 µM (inactive). For the same compound, the GI50 is 36.7 µM (inactive) in the assay on UACC-257; 33.3 µM (inactive) in the assay on NCI-H23; > 10 µM (inactive) with Malme-3M; 26.3 µM (inactive) with M14; > 100 µM (inactive) in the assay on DU-145; > 100 µM (inactive) in the assay with OVCAR-5. The GI50 in the assay on SK-MEL-5 is 38.7 µM (inactive).

For `NC(=O)c1cccc(OCC(O)CO)c1` (stereo not given), the 50% growth inhibitory concentration (GI50) in the assay with HCT-15 was over 100 µM; in the assay on NCI-H226 it was > 100 µM (inactive); with PC-3, > 100 µM (inactive); with KM12, > 100 µM (inactive); in the assay with OVCAR-4 it was > 100 µM (inactive); in the assay with IGROV-1 it was > 100 µM (inactive). The GI50 in the assay with SNB-19, with T47D, with HCT-116, with A498, in the assay with NCI-H522 and in the assay with 786-0 was > 100 µM (inactive) in each case. Besides, the GI50 in the assay with UACC-257, in the assay on NCI-H23, with M14, with DU-145, in the assay with OVCAR-5 and with SK-MEL-5 was > 100 µM (inactive) in each case.

Take `Cc1ccc(/N=N/c2c(C)c(C#N)c(=S)n(C3OC(CO)C(O)C(O)C3O)c2-c2ccccc2)cc1` (stereo not given): the GI50 was 21.9 µM in the assay on HCT-15; 15 µM (inactive) in the assay on PC-3; 19 µM (inactive) in the assay on KM12; 29 µM (inactive) in the assay on OVCAR-4; 31.3 µM (inactive) in the assay on IGROV-1; 19.6 µM (inactive) with SNB-19. Moreover, the GI50 in the assay with T47D is 22.4 µM (inactive); in the assay with HCT-116, 13.2 µM (inactive); in the assay on A498, 0.74 µM (active); with RPMI-8226, 28.9 µM (inactive); in the assay with 786-0, 21 µM (inactive); in the assay on UACC-257 it was 28.1 µM (inactive). The GI50 in the assay with NCI-H23 was 16.5 µM (inactive); in the assay on Malme-3M, 24.9 µM (inactive); in the assay with M14, 14.6 µM (inactive); with DU-145 it was 38.6 µM (inactive); with OVCAR-5, 28.9 µM (inactive); in the assay on SK-MEL-5 it was 11.2 µM (inactive).

Regarding `CCOC(=O)c1nc2ccc(C(F)(F)F)cc2[nH]c1=O`, the 50% growth inhibitory concentration (GI50) with HCT-15 was over 100 µM; in the assay with NCI-H226, > 100 µM (inactive); in the assay on PC-3, > 100 µM (inactive); with KM12, > 100 µM (inactive); in the assay on OVCAR-4, > 100 µM (inactive); in the assay on IGROV-1 it was > 100 µM (inactive). Moreover, the GI50 in the assay on SNB-19, with T47D, with HCT-116, with A498, in the assay on RPMI-8226 and with 786-0 was > 100 µM (inactive) throughout. Further, the GI50 in the assay with UACC-257, in the assay on NCI-H23, with M14, in the assay with DU-145, in the assay with OVCAR-5 and with SK-MEL-5 was > 100 µM (inactive) each time.
